Values quoted from earlier work in patent publication US11590110B2, “Compositions and methods for reactivating latent immunodeficiency virus using a GSK-3 inhibitor” (priority 2017, dated 2023).
Where two headings read alike, the source gives them in different places.

Conditions: cited from earlier work

O=c1sn(-c2cccc3ccccc23)c(=O)n1Cc1ccccc1 [Tideglusib, 4-benzyl-2-(naphthalen-1-yl)-1,2,4-thiadiazolidine-3,5-dione]
side effects / tolerability in humans: safe (i.e., non-toxic) and well tolerated in humans | side effects / tolerability in humans (listed as tideglusib): very low incidence of side-effects | moderate, asymptomatic and fully reversible increase of transaminase, share of cases (prolonged treatment): 30%
